Like-named read-outs stand apart in the source and are kept apart here.
What was measured:
[1] = system: HT29; experiment: 72-h MTT cytotoxicity assay, HT29; format: cell-based; conditions: Homo sapiens, HT-29, read-out: 72-h MTT in vitro IC50 (μM) HT29; Table 1; 72 h
Method: (§1) The compounds from the examples above were subjected to a standard cellular proliferation assay using human tumour cell lines obtained from the ATCC (American Type Culture Collection, 10801 University Boulevard, Manessas, Va. 20110-2209, USA). Standard 72-h MTT (thiazolyl blue; 3-[4,5-dimethylthiazol-2-yl]-2,5-diphenyltetrazolium bromide) assays were performed (Haselsberger, K.; Peterson, D. C.; Thomas, D. G.; Darling, J. L. Anti Cancer Drugs 1996, 7, 331-8; Loveland, B. E.; Johns, T. G.; Mackay, I. R.; Vaillant, F.; Wang, Z. X.; Hertzog, P. J. Biochemistry International 1992, 27, 501-10). In short: cells were seeded into 96-well plates according to doubling time and incubated overnight at 37° C. Test compounds were made up in DMSO and a 1/3 dilution series prepared in 100 μL cell media, added to cells (in triplicates) and incubated for 72 ho at 37° C. MTT was made up as a stock of 5 mg/mL in cell media and filter-sterilised. Media was removed from cells followed by a wash with 200 μL PBS. MTT solution was then added at 20 μL per well and incubated in the dark at 37° C. for 4 h. MTT solution was removed and cells again washed with 200 μL PBS. MTT dye was solubilised with 200 μL per well of DMSO with agitation.

[2] = system: A549; experiment: 72-h MTT cytotoxicity assay, A549; format: cell-based, human; conditions: Table 1, 72 h
Method: In short: cells were seeded into 96-well plates according to doubling time and incubated overnight at 37° C. Test compounds were made up in DMSO and a 1/3 dilution series prepared in 100 μL cell media, added to cells (in triplicates) and incubated for 72 ho at 37° C. MTT was made up as a stock of 5 mg/mL in cell media and filter-sterilised. Media was removed from cells followed by a wash with 200 μL PBS. MTT solution was then added at 20 μL per well and incubated in the dark at 37° C. for 4 h. MTT solution was removed and cells again washed with 200 μL PBS. MTT dye was solubilised with 200 μL per well of DMSO with agitation.

[3] = system: Saos-2; experiment: 72-h MTT cytotoxicity assay, Saos-2; format: cell-based; conditions: Homo sapiens, SAOS-2, read-out: 72-h MTT in vitro IC50 (μM) Saos-2; Table 1; 72 h
Method: as §1

[4] = biological target: CDK4/cyclin D1 (Homo sapiens, UniProt P11802); experiment: Kinase assay CDK4/cyclin D1;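 note: Enzyme: His6-tagged recombinant human CDK4 produced in baculovirus-infected Sf9 insect cells and purified by metal-chelate chromatography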
CDK4/cyclin D1, sequence (P11802 whole entry): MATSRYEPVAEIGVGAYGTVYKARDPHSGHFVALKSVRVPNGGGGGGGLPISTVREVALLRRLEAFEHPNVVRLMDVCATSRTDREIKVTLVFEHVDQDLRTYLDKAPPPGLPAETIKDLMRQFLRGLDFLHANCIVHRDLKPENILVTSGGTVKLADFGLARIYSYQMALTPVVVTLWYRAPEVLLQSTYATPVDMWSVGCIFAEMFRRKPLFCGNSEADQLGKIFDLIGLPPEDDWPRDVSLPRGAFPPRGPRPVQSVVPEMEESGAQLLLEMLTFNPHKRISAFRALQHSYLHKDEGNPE
CDK4/cyclin D1, sequence (P24385 whole entry partner): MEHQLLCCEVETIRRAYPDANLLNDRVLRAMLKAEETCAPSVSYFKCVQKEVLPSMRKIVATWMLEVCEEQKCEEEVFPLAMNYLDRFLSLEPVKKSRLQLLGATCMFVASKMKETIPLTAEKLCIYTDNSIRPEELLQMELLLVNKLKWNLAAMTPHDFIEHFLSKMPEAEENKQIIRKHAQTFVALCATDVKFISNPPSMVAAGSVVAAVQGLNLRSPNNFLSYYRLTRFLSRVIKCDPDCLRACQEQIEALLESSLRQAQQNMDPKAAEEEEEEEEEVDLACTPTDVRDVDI

[5] = biological target: T1, CDK2/cyclin E (Homo sapiens, UniProt P24941); experiment: Kinase assay CDK2/cyclin E; format: biochemical; conditions: Table 1; read-out: Kinase inhibition, IC50 (μM) CDK2/E
T1 construct: His6

[6] = Homo sapiens, A549, read-out: 72-h MTT in vitro IC50 (μM) A549
[7] = read-out: Kinase inhibition, IC50 (μM) CDK4/D1, Table 1

| Structure (SMILES) | IC50 [4] [µM] | IC50 [5] [µM] | IC50 [4, 7] [µM] | IC50 ([4]; Kinase inhibition, IC50 (μM) CDK4/D1, Table 1) [µM] | IC50 [1] [µM] | IC50 ([2]; read-out: 72-h MTT in vitro IC50 (μM) A549) [µM] | IC50 [3] [µM] | IC50 [2, 6] [µM] |
| --- | --- | --- | --- | --- | --- | --- | --- | --- |
| Cc1nc(N)sc1-c1ccnc(Nc2cccc([N+](=O)[O-])c2)n1 [Compound 1, [4-(2-Amino-4-methyl-thiazol-5-yl)-pyrimidin-2-yl]-(3-nitro-phenyl)-amine] |  |  |  |  | 0.34 | 0.22 | 0.42 |  |
| Cc1nc(N)sc1-c1ccnc(Nc2ccc(N(C)C)cc2)n1 [Compound 2, N-[4-(2-Amino-4-methyl-thiazol-5-yl)-pyrimidin-2-yl]-N^1,N^1-dimethyl-benzene-1,4-diamine] |  |  |  |  | 2.88 |  | 1.54 | 2.37 |
| Cc1nc(N)sc1-c1ccnc(Nc2ccc(Cl)cc2)n1 [Compound 3, [4-(2-Amino-4-methyl-thiazol-5-yl)-pyrimidin-2-yl]-(4-chloro-phenyl)-amine] | 0.46 | 0.43 |  |  | 4.01 |  | 2.61 | 2.94 |
| Cc1nc(N)sc1-c1ccnc(Nc2ccc(I)c([N+](=O)[O-])c2)n1 [Compound 14, [4-(2-Amino-4-methyl-thiazol-5-yl)-pyrimidin-2-yl]-(4-iodo-3-nitro-phenyl)-amine] | 0.64 | 0.2 |  |  | 0.28 |  | 0.31 | 0.29 |
| COc1ccc(Nc2nccc(-c3sc(C)nc3C)n2)cc1OC [Compound 23, (3,4-Dimethoxy-phenyl)-[4-(2,4-dimethyl-thiazol-5-yl)-pyrimidin-2-yl]-amine] |  | 0.03 | 1.06 |  | 1.17 |  | 2.02 | 1.57 |
| Cc1c(-c2ccnc(Nc3ccc(O)cc3)n2)sc(=O)n1C [Compound 31, 5-[2-(4-Hydroxy-phenylamino)-pyrimidin-4-yl]-3,4-dimethyl-3H-thiazol-2-one] |  |  |  |  | 0.87 |  | 0.4 | 0.29 |
| Cc1c(-c2ccnc(Nc3cccc([N+](=O)[O-])c3)n2)sc(=O)n1C [Compound 32, 3,4-Dimethyl-5-[2-(3-nitro-phenylamino)-pyrimidin-4-yl]-3H-thiazol-2-one] |  |  |  |  | 0.01 |  | 0.1 | 0.01 |
| Cc1c(-c2ccnc(Nc3ccc(F)cc3)n2)sc(=O)n1C [Compound 34, 5-[2-(4-Fluoro-phenylamino)-pyrimidin-4-yl]-3,4-dimethyl-3H-thiazol-2-one] |  |  |  |  | 0.38 |  | 1.27 | 0.51 |
| Cc1c(-c2ccnc(Nc3ccc(Cl)cc3)n2)sc(=O)n1C [Compound 35, 5-[2-(4-Chloro-phenylamino)-pyrimidin-4-yl]-3,4-dimethyl-3H-thiazol-2-one] | 1.09 | 0.11 |  |  | 0.4 |  | 2.78 | 0.89 |
| Cc1cc(Nc2nccc(-c3sc(=O)n(C)c3C)n2)ccc1F [Compound 41, 5-[2-(4-Fluoro-3-methyl-phenylamino)-pyrimidin-4-yl]-3,4-dimethyl-3H-thiazol-2-one] |  |  |  |  | 2.19 |  | 7.98 | 2.41 |
| Cc1ccc(Nc2nccc(-c3sc(=O)n(C)c3C)n2)cc1[N+](=O)[O-] [Compound 42, 3,4-Dimethyl-5-[2-(4-methyl-3-nitro-phenylamino)-pyrimidin-4-yl]-3H-thiazol-2-one] |  |  |  |  | 0.004 |  | 0.005 | 0.003 |
| Cc1c(-c2ccnc(Nc3ccc(N(C)C)cc3)n2)sc(=O)n1C [Compound 43, 5-[2-(4-Dimethylamino-phenylamino)-pyrimidin-4-yl]-3,4-dimethyl-3H-thiazol-2-one] | 3.82 |  |  |  | 1.69 |  | 3.36 | 2.2 |
| Cc1nc(N(C)C)sc1-c1ccnc(Nc2cccc([N+](=O)[O-])c2)n1 [Compound 52, [4-(2-Dimethylamino-4-methyl-thiazol-5-yl)-pyrimidin-2-yl]-(3-nitro-phenyl)-amine] |  |  |  | 10 | 3.41 |  | 2.57 | 2.47 |
| Cc1nc(NCCO)sc1-c1ccnc(Nc2ccc(F)cc2)n1 [Compound 59, 2-{5-[2-(4-Fluoro-phenylamino)-pyrimidin-4-yl]-4-methyl-thiazol-2-ylamino}-ethanol] | 15 | 0.08 |  |  |  |  |  |  |

The next lines start with results.

| IC50 [4] [µM] | IC50 [5] [µM] | IC50 [4, 7] [µM] | IC50 ([4]; Kinase inhibition, IC50 (μM) CDK4/D1, Table 1) [µM] | Structure (SMILES) | IC50 [1] [µM] | IC50 ([2]; read-out: 72-h MTT in vitro IC50 (μM) A549) [µM] | IC50 [3] [µM] | IC50 [2, 6] [µM] |
| --- | --- | --- | --- | --- | --- | --- | --- | --- |
|  |  | 5.83 |  | Cc1nc(N)sc1-c1ccnc(Nc2ccc(C(F)(F)F)cc2)n1 [Compound 7, [4-(2-Amino-4-methyl-thiazol-5-yl)-pyrimidin-2-yl]-(4-trifluoromethyl-phenyl)-amine] | 1.26 |  | 0.65 | 1.03 |
| 0.42 | 0.34 |  |  | COc1ccc(Nc2nccc(-c3sc(N)nc3C)n2)cc1 [Compound 8, [4-(2-Amino-4-methyl-thiazol-5-yl)-pyrimidin-2-yl]-(4-methoxy-phenyl)-amine] | 2.71 |  | 1.32 | 1.55 |
|  | 0.02 | 0.07 |  | Cc1nc(N)sc1-c1ccnc(Nc2cccc(Cl)c2)n1 [Compound 9, [4-(2-Amino-4-methyl-thiazol-5-yl)-pyrimidin-2-yl]-(3-chloro-phenyl)-amine] | 0.79 |  | 0.43 | 0.55 |
| 0.45 | 0.04 |  |  | Cc1nc(N)sc1-c1ccnc(Nc2cccc(O)c2)n1 [Compound 13, 3-[4-(2-Amino-4-methyl-thiazol-5-yl)-pyrimidin-2-ylamino]-phenol] | 2.87 |  | 0.52 | 0.95 |
|  |  | 3.28 |  | Cc1nc(C)c(-c2ccnc(Nc3ccc(CCO)cc3)n2)s1 [Compound 21, 2-{4-[4-(2,4-Dimethyl-thiazol-5-yl)-pyrimidin-2-ylamino]-phenyl}-ethanol] | 3.61 |  | 4.37 | 2.79 |
|  |  | 1.68 |  | COc1ccc(Nc2nccc(-c3sc(C)nc3C)n2)cc1O [Compound 24, 5-[4-(2,4-Dimethyl-thiazol-5-yl)-pyrimidin-2-ylamino]-2-methoxy-phenol] | 5.47 |  | 0.16 | 0.44 |
| 2.88 | 0.56 |  |  | COc1ccc(Nc2nccc(-c3sc(C)nc3C)n2)cc1N(C)C [Compound 28, N^1-[4-(2,4-Dimethyl-thiazol-5-yl)-pyrimidin-2-yl]-4-methoxy-N^3,N^3-dimethyl-benzene-1,3-diamine] | 2.23 |  | 1.59 | 2.07 |
| 0.99 | 0.32 |  |  | CNc1nc(C)c(-c2ccnc(Nc3ccc(N(C)C)cc3)n2)s1 [Compound 29, N,N-Dimethyl-N′-[4-(4-methyl-2-methylamino-thiazol-5-yl)-pyrimidin-2-yl]-benzene-1,4-diamine] | 0.6 |  | 0.8 | 0.4 |
| 0.25 | 0.12 |  |  | CNc1nc(C)c(-c2ccnc(Nc3ccc(I)c([N+](=O)[O-])c3)n2)s1 [Compound 30, (4-Iodo-3-nitro-phenyl)-[4-(4-methyl-2-methylamino-thiazol-5-yl)-pyrimidin-2-yl]-amine] | 1.07 |  | 2.31 | 0.94 |
|  | 1.18 | 17.9 |  | Cc1cc(Nc2nccc(-c3sc(=O)n(C)c3C)n2)ccc1Cl [Compound 39, 5-[2-(4-Chloro-3-methyl-phenylamino)-pyrimidin-4-yl]-3,4-dimethyl-3H-thiazol-2-one] |  |  |  |  |

— patent publication US7427627B2, “N-(4-(4-methylthiazol-5-yl) pyrimidin-2-yl)-N-phenylamines as antiproliferative compounds” (Cyclacel Limited, priority 2001, dated 2008)
